From patent US8809234B1, “Drift reduction compositions for agricultural use” (AgQuam LLC, priority 2011, dated 2014)

Columns and labels:
Format in all cases: in vivo
Conditions in all cases: Glyphosate 0.375 lb/acre; AMS 17 lb/100 gal, NIS, AQ 284 or AQ 268 […] v/v, INTERLOCK 4 fl oz/acre
Corn = assay: Greenhouse study for weed control, corn
Description: (§1) A greenhouse study was conducted to test the efficacy of the AQ 284 combination water conditioning adjuvant and drift reduction composition compared to the commercial standard (INTERLOCK). Greenhouse research was conducted with individual plants growing in 3×3×3 inch pots. Greenhouse treatments were applied with a track sprayer using an 8002 E single nozzle applying 20 gpa.

Sunflower = assay: Greenhouse study for weed control, sunflower
Description: as §1

Wheat = assay: Greenhouse study for weed control, wheat
Description: as §1

Corn, Sunflower, Wheat = assay: Greenhouse study for weed control, average of species
Description: as §1

O=C(O)CNCP(=O)(O)O [Glyphosate, N-(phosphonomethyl)glycine]
Corn % Control 18 Days After Application (Corn): 10.0%
Sunflower % Control 18 Days After Application (Sunflower): 15.0%
Wheat % Control 18 Days After Application (Wheat): 15.0%
Average % Control 18 Days After Application (Corn, Sunflower, Wheat): 13.3%
